In ChEMBL document CHEMBL6096628, “Discovery of a Highly Potent and Selective BRD9 PROTAC Degrader Based on E3 Binder Investigation for the Treatment of Hematological Tumors” (J Med Chem, 2024):
The source made the active and inactive calls. The calls are words filed in the database; no cut-off is given here.

What was measured:
MV4-11 [1] = test: Induction of apoptosis in human MV4-11 cells assessed as early apoptotic cells at 0.01 nM incubated for 48 hrs by Annexin V-FITC/PI staining based flow cytometric analysis (reference value: 4.22 %); type: functional
Mus musculus = test: Upregulation of C-myc expression in Balb/c nude mouse tumor xenografted with human MV4-11 cells at 20 mg/kg, ip administered once daily for 20 days by Western blot analysis; type: functional, organism-based; conditions: time 20.0 day
[2] = target: T1, Protein cereblon/Bromodomain-containing protein 9 (Homo sapiens, UniProt Q9H8M2+Q96SW2); test: PROTAC activity at CRBN/BRD9 in human MV4-11 cells assessed as induction of BRD9 degradation at 0.33 nM in presence of pomalidomide by Western blot analysis; type: cell-based
Target sequence in this assay (Q96SW2 whole entry, looked up): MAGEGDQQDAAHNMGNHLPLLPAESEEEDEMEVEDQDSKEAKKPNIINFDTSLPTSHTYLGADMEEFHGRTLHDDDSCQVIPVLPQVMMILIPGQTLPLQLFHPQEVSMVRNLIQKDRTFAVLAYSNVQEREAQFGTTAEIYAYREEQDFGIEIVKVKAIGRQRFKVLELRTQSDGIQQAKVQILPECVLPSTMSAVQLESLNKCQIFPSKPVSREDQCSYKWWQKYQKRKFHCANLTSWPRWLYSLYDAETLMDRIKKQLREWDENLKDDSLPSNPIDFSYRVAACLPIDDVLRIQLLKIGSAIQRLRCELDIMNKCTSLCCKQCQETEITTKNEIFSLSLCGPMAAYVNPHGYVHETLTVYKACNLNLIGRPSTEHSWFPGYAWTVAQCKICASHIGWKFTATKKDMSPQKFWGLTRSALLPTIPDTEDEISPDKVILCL
Target sequence in this assay (Q9H8M2 whole entry, looked up): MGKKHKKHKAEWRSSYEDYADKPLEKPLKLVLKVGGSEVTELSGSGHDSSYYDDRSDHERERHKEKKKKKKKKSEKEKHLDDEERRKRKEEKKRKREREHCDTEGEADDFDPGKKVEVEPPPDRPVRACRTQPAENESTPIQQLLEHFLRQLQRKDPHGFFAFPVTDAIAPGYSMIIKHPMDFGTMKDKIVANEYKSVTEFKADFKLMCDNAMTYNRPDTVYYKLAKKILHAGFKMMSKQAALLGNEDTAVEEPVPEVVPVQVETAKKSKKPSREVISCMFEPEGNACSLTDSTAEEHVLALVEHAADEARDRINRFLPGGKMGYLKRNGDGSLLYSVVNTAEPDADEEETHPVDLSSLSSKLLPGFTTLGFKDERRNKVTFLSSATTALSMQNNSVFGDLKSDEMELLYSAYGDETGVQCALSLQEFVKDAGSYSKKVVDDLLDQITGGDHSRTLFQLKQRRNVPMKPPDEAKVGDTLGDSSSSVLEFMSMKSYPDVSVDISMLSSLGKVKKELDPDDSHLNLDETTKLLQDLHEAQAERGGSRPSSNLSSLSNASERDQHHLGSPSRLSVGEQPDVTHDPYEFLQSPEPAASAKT

MV4-11 [3] = test: Induction of apoptosis in human MV4-11 cells assessed as necrotic cells at 1 nM incubated for 48 hrs by Annexin V-FITC/PI staining based flow cytometric analysis (reference value: 0.07 %); type: functional
MV4-11 [4] = test: Cell cycle arrest in human MV4-11 cells assessed as accumulation of cells at G1 phase at 0.01 to 10 nM incubated for 24 hrs by PI staining based flow cytometric analysis; type: functional; conditions: dose 0.01-10 nM
[5] = Toxicity in Balb/c nude mouse xenografted with human OCI-Ly10 cells assessed as mortality at 30 mg/kg, po administered once daily for 18 days; type: organism-based; conditions: in vivo, 432 h, time 18 day
[6] = target: T1, Protein cereblon/Bromodomain-containing protein 9; test: PROTAC activity at CRBN/BRD9 in human MV4-11 cells assessed as induction of BRD9 degradation at 0.33 nM in presence of MG132 by Western blot analysis; type: cell-based
Target sequence in this assay (Q96SW2 whole entry, looked up): as the sequence (Q96SW2 whole entry, looked up) above
Target sequence in this assay (Q9H8M2 whole entry, looked up): as the sequence (Q9H8M2 whole entry, looked up) above

U-937 = test: Antiproliferative activity against human U-937 cells assessed as inhibition of cell growth incubated for 7 days by MTS reagent based assay; type: functional; conditions: U-937, 168 h
MV4-11 [7] = test: Induction of GSPT1 degradation in human MV4-11 cells at 0.1 to 100 nM by Western blotting analysis; type: cell-based; conditions: dose 0.1-100 nM
[8] = target: T1, Protein cereblon/Bromodomain-containing protein 9; test: PROTAC activity at CRBN/BRD9 in human MV4-11 cells assessed as induction of BRD9 degradation at 100 nM by Western blot analysis relative to control; type: cell-based
Target sequence in this assay (Q96SW2 whole entry, looked up): as the sequence (Q96SW2 whole entry, looked up) above
Target sequence in this assay (Q9H8M2 whole entry, looked up): as the sequence (Q9H8M2 whole entry, looked up) above

[9] = target: T1, Protein cereblon/Bromodomain-containing protein 9; test: PROTAC activity at CRBN/BRD9 in human MV4-11 cells assessed as induction of BRD9 degradation by Western blot analysis; type: cell-based
MV4-11 [10] = test: Induction of apoptosis in human MV4-11 cells assessed as early apoptotic cells at 1 nM incubated for 48 hrs by Annexin V-FITC/PI staining based flow cytometric analysis (reference value: 4.22 %); type: functional
MV4-11 [11] = test: Downregulation of CELF1 protein expression in human MV4-11 cells by proteomic analysis; type: functional, cell-based
[12] = target: T1, Protein cereblon/Bromodomain-containing protein 9; test: PROTAC activity at CRBN/BRD9 in human MV4-11 cells assessed as induction of BRD9 degradation at 0.33 nM measured within 2 hrs by Western blot analysis; type: cell-based
Target sequence in this assay (Q96SW2 whole entry, looked up): as the sequence (Q96SW2 whole entry, looked up) above
Target sequence in this assay (Q9H8M2 whole entry, looked up): as the sequence (Q9H8M2 whole entry, looked up) above

OCI-Ly10 = test: Antitumor activity against human OCI-Ly10 cells xenografted in Balb/c nude mouse assessed as test to control ratio at 30 mg/kg, po administered once daily for 18 days relative to control; type: functional; conditions: time 18 day
MV4-11 [13] = test: Antitumor activity against human MV4-11 cells xenografted in Balb/c nude mouse assessed as tumor volume at 20 mg/kg, ip administered once daily for 20 days (reference value: 1187 +/- 449 mm^3); type: functional; conditions: time 20 day
[14] = target: T1, Protein cereblon/Bromodomain-containing protein 9; test: PROTAC activity at CRBN/BRD9 in human MV4-11 cells assessed as induction of BRD9 degradation by measuring maximal efficacy by Western blot analysis relative to control; type: cell-based
Target sequence in this assay (Q96SW2 whole entry, looked up): as the sequence (Q96SW2 whole entry, looked up) above
Target sequence in this assay (Q9H8M2 whole entry, looked up): as the sequence (Q9H8M2 whole entry, looked up) above

MV4-11 [15] = test: Downregulation of CHEK2 protein expression in human MV4-11 cells by proteomic analysis; type: functional, cell-based
MV4-11 [16] = test: Downregulation of BRD9 protein expression in human MV4-11 cells by proteomic analysis; type: functional, cell-based
MV4-11 [17] = test: Upregulation of C-myc expression level in human MV4-11 cells at 0.1 to 10 nM measured after 24 to 48 hrs by Western blot analysis; type: functional, cell-based; conditions: dose 0.1-10 nM, time 24-48 hrs
[18] = Toxicity in Balb/c nude mouse xenografted with human OCI-Ly10 cells assessed as effect on body weight at 30 mg/kg, po administered once daily for 18 days; type: organism-based; conditions: in vivo, 432 h, time 18 day
MV4-11 [19] = test: Induction of apoptosis in human MV4-11 cells assessed as viable cells at 10 nM incubated for 48 hrs by Annexin V-FITC/PI staining based flow cytometric analysis (reference value: 94.80 %); type: functional; conditions: read-out: Activity
MV4-11 [20] = test: Antitumor activity against human MV4-11 cells xenografted in Balb/c nude mouse assessed as tumor growth inhibition at 20 mg/kg, ip administered once daily for 20 days relative to control; type: functional; conditions: MV4-11, 480 h, time 20 day, read-out: TGI
[21] = target: T1, Protein cereblon/Bromodomain-containing protein 9; test: PROTAC activity at CRBN/BRD9 in human MV4-11 cells assessed as induction of BRD9 degradation at 0.33 nM in presence of MLN4924 by Western blot analysis; type: cell-based
Target sequence in this assay (Q96SW2 whole entry, looked up): as the sequence (Q96SW2 whole entry, looked up) above
Target sequence in this assay (Q9H8M2 whole entry, looked up): as the sequence (Q9H8M2 whole entry, looked up) above

[22] = target: T1, Protein cereblon/Bromodomain-containing protein 9; test: In vivo PROTAC activity at CRBN/BRD9 in Balb/c nude mouse xenografted with human MV4-11 cells assessed as induction of BRD9 degradation in tumor at 20 mg/kg, ip administered once daily for 20 days by Western blot analysis; type: functional, organism-based; conditions: time 20.0 day
MV4-11 [23] = test: Downregulation of AXIN2 expression level in human MV4-11 cells at 0.1 to 10 nM measured after 24 to 48 hrs by Western blot analysis; type: functional, cell-based; conditions: dose 0.1-10 nM, time 24-48 hrs
[24] = target: T1, Protein cereblon/Bromodomain-containing protein 9; test: PROTAC activity at CRBN/BRD9 in human MV4-11 cells assessed as induction of BRD9 degradation at 0.33 nM measured after 4 hrs by Western blot analysis relative to control; type: cell-based
MV4-11 [25] = test: Downregulation of KHDC4 protein expression in human MV4-11 cells by proteomic analysis; type: functional, cell-based
SU-DHL-2 = test: Antiproliferative activity against human SU-DHL-2 cells assessed as inhibition of cell growth incubated for 7 days by MTS reagent based assay; type: functional; conditions: SU-DHL-2, 168 h
MV4-11 [26] = test: Induction of apoptosis in human MV4-11 cells assessed as viable cells at 1 nM incubated for 48 hrs by Annexin V-FITC/PI staining based flow cytometric analysis (reference value: 94.80 %); type: functional; conditions: read-out: Activity
MV4-11 [27] = test: Induction of apoptosis in human MV4-11 cells assessed as early apoptotic cells at 0.1 nM incubated for 48 hrs by Annexin V-FITC/PI staining based flow cytometric analysis (reference value: 4.22 %); type: functional
MV4-11 [28] = test: Induction of apoptosis in human MV4-11 cells assessed as necrotic cells at 0.1 nM incubated for 48 hrs by Annexin V-FITC/PI staining based flow cytometric analysis (reference value: 0.07 %); type: functional
[29] = target: T1, Protein cereblon/Bromodomain-containing protein 9; test: PROTAC activity at CRBN/BRD9 in human MV4-11 cells assessed as induction of BRD9 degradation at 1 nM by Western blot analysis relative to control; type: cell-based
MV4-11 [30] = test: Antiproliferative activity against human MV4-11 cells assessed as inhibition of cell growth incubated for 7 days by MTS reagent based assay; type: functional; conditions: MV4-11, 168 h

COc1cc(-c2cn(C)c(=O)c3ccccc23)cc(OC)c1CN1CCC(CN2CCC(c3ccc4c5c(cccc35)C(=O)N4C3CCC(=O)NC3=O)CC2)CC1 (stereo not given)
Activity (MV4-11 [1]): 6.35%
Activity (Mus musculus): Active
Activity [2]: inactive
Activity (MV4-11 [3]): 0.06%
Activity (MV4-11 [4]): Active
Activity [5]: Non-toxic
Activity [6]: Not active; Compound Functioned Through Ubiquitin-Proteasome System
IC50 (U-937): 1060 nM
Activity (MV4-11 [7]): inactive
Activity [8]: 95%
Activity [9]: Dose-dependent-effect
DC50 [9]: 0.016 nM
Activity (MV4-11 [10]): 13.79%
Activity (MV4-11 [11]): Active
Activity [12]: Active
T/C (OCI-Ly10): ~40%
Activity (MV4-11 [13]): 766 mm3
Emax [14]: 97%
Activity (MV4-11 [15]): Active
Activity (MV4-11 [16]): Active
Activity (MV4-11 [17]): Active
Activity [18]: Non-toxic
viability at 0.01 µM (MV4-11 [19]): 74.8%
inhibition in vivo at 20 mg/kg (MV4-11 [20]): 30.9%
Activity [21]: Not active; Compound Functioned Through Ubiquitin-Proteasome System
Activity [22]: Active
Activity (MV4-11 [23]): Active
Activity [24]: 92%
Activity (MV4-11 [25]): Active
IC50 (SU-DHL-2): 38.6 nM
viability at 0.001 µM (MV4-11 [26]): 80.4%
Activity (MV4-11 [27]): 9.2%
Activity (MV4-11 [28]): 0.03%
Activity [29]: 92.5%
IC50 (MV4-11 [30]): 0.27 nM
